“Also recorded” adds a separate entry of the source.
What was measured:
[1] = test system: Hmox1; assay: Hmox1 transcript levels in mouse organs after oral gavage; format: in vivo; settings: mice, particularly digestive tract
Description: (§1) The RNeasy Mini Kit (Qiagen) was used to collect total RNA from cells, while for mouse tissue, TRIzol reagent (Invitrogen) was used. In each case, total RNAs (2 μg) were reverse-transcribed into cDNAs, which were used as templates for TaqMan gene expression assay (Applied Biosystems) and detected using the 7300 Real-Time PCR System (Applied Biosystems). Each qPCR sample was tested in triplicate as a 25 μL total reaction volume (12.5 μL of Taqman 2× universal master mix, 1.25 μL of a 20× TaqMan gene expression assay probe, 1 μL of the above cDNA, and 10.25 μL of RNase-free sterile water). The qPCR method was designed as following: 50° C. for 2 min, 95° C. for 10 min, and 40 cycles of 95° C. for 15 s and 60° C. for 1 min. Endogenous controls used included GAPDH for IMR-32 cells and β-actin to normalize for RAW264.7 cells and mouse tissues.
The experiments were approved by the Institutional Animal Care & Use Committee at the University of Florida. Groups of 5-10 wild type male mice (C57BL/6J) were used for each treatment type. The mice were maintained under approved standard conditions. […] The tissues were harvested immediately, frozen on dry ice, and kept at −80° C. until analyzed.
A low dose and a high dose of cymopol (1) or the NP extract were administered to 4-week-old male mice via oral gavage.

[2] = test system: ARE-driven and NFκB driven genes; assay: Gene transcription in wildtype zebrafish embryos; format: in vivo
[3] = test system: Nrf2; assay: Nuclear translocation of NRF2 in IMR-32 cells; format: cell-based, human
Description: IMR-32 cells were seeded in 6-well format at 2×10^6 cells/well and incubated at 37° C. overnight. The cells were treated with a solvent control (DMSO, 1%, v/v) or serial dilutions of isolated compounds or extracts for the indicated periods of time. The cytosolic and nuclear extracts were separated and prepared using a commercial kit, NE-PER Nuclear and Cytoplasmic Extraction Reagents (Thermo Scientific). Briefly, cells were gently washed once with 200 μL at DPBS before being resuspended in 1 mL DPBS, transferred to a pre-chilled tube, and pelleted at 500×g for 3 min at 4° C. The supernatant was removed and cells were resuspended in ice-cold CER I containing 1% cOmplete, EDTA-free Protease Inhibitor Cocktail (v/v, Roche Diagnostics) by vigorous vortexing. After addition of ice-cold buffer CER II, the samples were vortexed vigorously for 5 s and incubated on ice for 1 min twice before being pelleted at 16,000×g for 5 min at 4° C. The supernatant was transferred to a fresh tube and used as cytosolic stock. The pellet was washed twice by adding 75 μL ice-cold DPBS, flicking, centrifuging, and removing the supernatant before resuspension in ice-cold buffer NER supplemented with 1% cOmplete, EDTA-free Protease Inhibitor Cocktail (v/v). […] Subsequently, the cellular and nuclear extracts were analyzed by immunoblot.

[4] = test system: NO production in MEF cells; assay: NO assay in MEF cells; format: cell-based, murine; settings: stimulated with IFN-γ and TNF-α
Description: RAW264.7 cells (2×10^4 cells/well), wild-type (8×10^3 cells/well), Nrf2−/−(7×10^3 cells/well), and Keap1−/−(5×10^3 cells/well) MEF were seeded into 96-well format. Cells were pretreated for 1 h with a solvent control (DMSO, 1%, v/v) or serial dilutions of isolated compounds or extracts before addition of LPS (1 μg/mL) or IFN-γ (10 ng/mL). […] In each case, 50 μL of the media was combined with 50 μL Griess Reagent (Promega). Absorbance was measured at 540 nm and compared with a calibration curve generated using the provided […] standard.

[5] = test system: PGE2 production in RAW264.7 cells; assay: PGE2 assay in RAW264.7 cells; format: cell-based, mouse; settings: RAW264.7, IFN-γ
Description: RAW264.7 cells were seeded into a 96 well format at 4×10^4 cells/well and incubated overnight at 37° C. Cells were treated with a solvent control (DMSO, 1%, v/v) or serial dilutions of isolated compounds or extracts for 1 h before the addition of IFN-γ (10 ng/mL). […] The experiment was performed using the standard manufacturer's protocol.

[6] = test system: neutrophil migration to cut site, Tg(mpx::GFP) zebrafish; assay: Zebrafish in vivo neutrophil migration assay; parameters: species or system Danio rerio; settings: relative to DMSO vehicle control
Description: Tg(mpx::GFP)^ill4 transgenic zebrafish larvae (6 dpf) were pre-treated in duplicate with a solvent control ((DMSO, 1%, v/v) or serial dilutions of the compound or extract in 12-well plate format with five larvae per well containing 1 mL E2 medium containing 1 mM Tris pH 7.4. After 3 hours, larvae were anesthetised with Tricaine and tailfins were amputated using sharp blades to induce the migration of neutrophils. The larvae were then placed into fresh wells to be post-treated for an additional 3 hours. A fluorescence stereomicroscope was used to count the number of neutrophils that migrated to the site of injury. The assay was performed in triplicate to determine statistical significance.
For in vivo evaluation, a previously reported neutrophil migration assay in the model organism, Danio rerio, was used [Wang X, et al. (2014) Inhibitors of neutrophil recruitment identified using transgenic zebrafish to screen a natural product library. Dis Model Mech 7(1):163-169]. […] The fish were then quickly transferred into fresh media containing the treatments for an additional 3 h before the GFP-tagged neutrophils were counted under the fluorescent microscope. […]

[7] = test system: iNOS; assay: iNOS transcript levels in RAW264.7 macrophage cells; format: cell-based, mouse; settings: 10 μM Compound 1, IFN-γ
Description: as §1
RAW264.7 cells were seeded in 6-well plates (8×10^5 cells/well) and incubated at 37° C. overnight.

CC(C)=CCC/C(C)=C/Cc1cc(O)c(Br)cc1O [Compound 1, (E)-2-bromo-5-(3,7-dimethylocta-2,6-dien-1-yl)benzene-1,4-diol]
transcript levels of Hmox1 in various organs [1]: elevated transcript levels of Hmox1 | ARE-driven gene transcription [2]: increase in ARE-driven gene transcription | select NFκB driven genes [2]: decrease in select NFκB driven genes | time after which increased nuclear NRF2 levels were seen ([3]; IMR-32 cells): 18 h | nuclear translocation of NRF2 ([3]; IMR-32 cells, 0, 1, 6 or 18 hours): induced nuclear translocation of NRF2 | NO production in wild-type MEFs [4]: minimized NO production; also recorded: restore basal level of NO | anti-inflammatory effects in Nrf2−/− and Keap1−/− MEFs [4]: did not demonstrate appreciable anti-inflammatory effects | production of pro-inflammatory PGE2 [5]: effectively reduced the production | number of neutrophils at the cut site [6]: decrease of neutrophils | lowering of induced iNOS transcript levels [7]: > 96%

From patent US20240226211A9, “SEAWEED EXTRACTS, ISOLATED COMPOUNDS, AND METHODS OF TREATMENT” (University of Florida Research Foundation, Incorporated, priority 2017, published 2024)
